Here are results for 2 molecules from publication PMC6367069 (Rapid communications in mass spectrometry : RCM, 2019).

Assay [1] deals with PPARγ. Conditions: endogenous ligand of PPARγ; cited from earlier work.
Assay [2] deals with T1, PPARγ (Homo sapiens, UniProt P37231).
T1 sequence (P37231 1-505): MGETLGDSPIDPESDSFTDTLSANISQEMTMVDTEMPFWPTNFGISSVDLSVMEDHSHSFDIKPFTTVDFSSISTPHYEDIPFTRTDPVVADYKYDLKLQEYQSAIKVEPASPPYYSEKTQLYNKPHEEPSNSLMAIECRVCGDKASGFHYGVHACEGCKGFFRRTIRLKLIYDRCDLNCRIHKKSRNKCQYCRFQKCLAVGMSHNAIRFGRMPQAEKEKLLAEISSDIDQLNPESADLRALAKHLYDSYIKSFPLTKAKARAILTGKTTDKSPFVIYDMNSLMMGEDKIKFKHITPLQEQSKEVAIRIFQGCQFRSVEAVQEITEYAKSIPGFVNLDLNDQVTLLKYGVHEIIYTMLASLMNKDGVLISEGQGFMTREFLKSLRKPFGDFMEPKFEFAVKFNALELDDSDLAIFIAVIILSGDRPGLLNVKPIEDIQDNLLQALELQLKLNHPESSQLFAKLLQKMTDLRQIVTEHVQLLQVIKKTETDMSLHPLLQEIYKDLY
Conditions: for binding to immobilized PPARγ (SPR binding analysis): 50 μM and 100 μM analyte, 25 °C; for Kd: single cycle kinetics, heterogeneous ligand model. In general terms: Surface plasmon resonance follows binding to a sensor surface in real time, without labels.

Where two headings read alike, the source gives them in different places.

Broadly, the EC50 is the concentration needed to bring the measured effect to its halfway point. Turning to `CCCCC/C=C/C=C1/C(=O)C=C[C@@H]1C/C=C\CCCC(=O)O` [15Δ-PGJ2, 15-deoxy-delta-12,14-prostaglandin J2], the EC50 in the assay on PPARγ [1] is 2 µM. Moreover, the “binding to immobilized PPARγ (SPR binding analysis)” value on PPARγ [2] is given as “direct binding”. In addition, the Kd at PPARγ [2] (read-out: Kd1) came out at 10 µM; on PPARγ [2] (read-out: Kd2), 311 µM.
Take `CCCCC(CC)COC(=O)c1ccccc1C(=O)OCC(CC)CCCC` (centres unmarked) [DEHP, di-(2-ethylhexyl)phthalate]: the “binding to immobilized PPARγ (SPR binding analysis)” value at PPARγ [2] is “almost no detectable binding”.
